Reference: patent US10906873B2, “Substituted cyclic amides as herbicides” (FMC Corporation, priority 2015, dated 2021)

test system: foxtail, giant (giant foxtail, Setaria faberii); assay: Test A postemergence, foxtail, giant; format: in vivo; conditions: 125 g ai/ha, 0 to 100 scale
In short: (§1)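 Pre: seeds planted in loam/sand, directed soil spray. Post: 2–10 cm plants, 1–2 leaf. Formulation: non-phytotoxic solvent + surfactant. Greenhouse ~10 d; visual injury vs untreated, 0 = no effect, 100 = complete control.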

| SMILES | Plant response rating, Foxtail, Giant |
| --- | --- |
| O=C1NCC(/C=C/c2ccccc2)C1C(=O)Nc1ccccc1F (stereo not drawn) [Compound 32] | 20 |

same assay, conditions: 500 g ai/ha, 0 to 100 scale

| SMILES | Plant response rating, Foxtail, Giant |
| --- | --- |
| O=C1NCC(/C=C/c2ccccc2)C1C(=O)Nc1ccccc1F (stereo not drawn) [Compound 32] | 80 |

test system: ragweed (common ragweed, Ambrosia elatior); assay: Test A postemergence, ragweed; format: in vivo; conditions: 125 g ai/ha, 0 to 100 scale
In short: as §1

| SMILES | Plant response rating, Ragweed |
| --- | --- |
| O=C1NCC(/C=C/c2ccccc2)C1C(=O)Nc1ccccc1F (stereo not drawn) [Compound 32] | 10 |

same assay, conditions: 500 g ai/ha, 0 to 100 scale

| SMILES | Plant response rating, Ragweed |
| --- | --- |
| O=C1NCC(/C=C/c2ccccc2)C1C(=O)Nc1ccccc1F (stereo not drawn) [Compound 32] | 10 |

test system: foxtail, giant (giant foxtail, Setaria faberii); assay: Test A preemergence, foxtail, giant; format: in vivo; conditions: 125 g ai/ha, 0 to 100 scale
In short: as §1

| SMILES | Plant response rating, Foxtail, Giant |
| --- | --- |
| O=C1NCC(/C=C/c2ccccc2)C1C(=O)Nc1ccccc1F (stereo not drawn) [Compound 32] | 0 |

same assay, conditions: 500 g ai/ha, 0 to 100 scale

| SMILES | Plant response rating, Foxtail, Giant |
| --- | --- |
| O=C1NCC(/C=C/c2ccccc2)C1C(=O)Nc1ccccc1F (stereo not drawn) [Compound 32] | 80 |

test system: pigweed (Amaranthus retroflexus); assay: Test A preemergence, pigweed; format: in vivo; conditions: 125 g ai/ha, 0 to 100 scale
In short: as §1

| SMILES | Plant response rating, Pigweed |
| --- | --- |
| O=C1NCC(/C=C/c2ccccc2)C1C(=O)Nc1ccccc1F (stereo not drawn) [Compound 32] | 0 |

same assay, conditions: 500 g ai/ha, 0 to 100 scale

| SMILES | Plant response rating, Pigweed |
| --- | --- |
| O=C1NCC(/C=C/c2ccccc2)C1C(=O)Nc1ccccc1F (stereo not drawn) [Compound 32] | 0 |

test system: kochia (Kochia scoparia); assay: Test A preemergence, kochia; format: in vivo; conditions: 125 g ai/ha, 0 to 100 scale
In short: as §1

| SMILES | Plant response rating, Kochia |
| --- | --- |
| O=C1NCC(/C=C/c2ccccc2)C1C(=O)Nc1ccccc1F (stereo not drawn) [Compound 32] | 0 |

same assay, conditions: 500 g ai/ha, 0 to 100 scale

| SMILES | Plant response rating, Kochia |
| --- | --- |
| O=C1NCC(/C=C/c2ccccc2)C1C(=O)Nc1ccccc1F (stereo not drawn) [Compound 32] | 0 |

test system: wheat (Triticum aestivum); assay: Test A postemergence, wheat; format: in vivo; conditions: 125 g ai/ha, 0 to 100 scale
In short: as §1

| SMILES | Plant response rating, Wheat |
| --- | --- |
| O=C1NCC(/C=C/c2ccccc2)C1C(=O)Nc1ccccc1F (stereo not drawn) [Compound 32] | 0 |

same assay, conditions: 500 g ai/ha, 0 to 100 scale

| SMILES | Plant response rating, Wheat |
| --- | --- |
| O=C1NCC(/C=C/c2ccccc2)C1C(=O)Nc1ccccc1F (stereo not drawn) [Compound 32] | 0 |

test system: pigweed (Amaranthus retroflexus); assay: Test A postemergence, pigweed; format: in vivo; conditions: 125 g ai/ha, 0 to 100 scale
In short: as §1

| SMILES | Plant response rating, Pigweed |
| --- | --- |
| O=C1NCC(/C=C/c2ccccc2)C1C(=O)Nc1ccccc1F (stereo not drawn) [Compound 32] | 0 |

same assay, conditions: 500 g ai/ha, 0 to 100 scale

| SMILES | Plant response rating, Pigweed |
| --- | --- |
| O=C1NCC(/C=C/c2ccccc2)C1C(=O)Nc1ccccc1F (stereo not drawn) [Compound 32] | 0 |

test system: barnyardgrass (Echinochloa crus-galli); assay: Test A postemergence, barnyardgrass; format: in vivo; conditions: 125 g ai/ha, 0 to 100 scale
In short: as §1

| SMILES | Plant response rating, Barnyardgrass |
| --- | --- |
| O=C1NCC(/C=C/c2ccccc2)C1C(=O)Nc1ccccc1F (stereo not drawn) [Compound 32] | 40 |

same assay, conditions: 500 g ai/ha, 0 to 100 scale

| SMILES | Plant response rating, Barnyardgrass |
| --- | --- |
| O=C1NCC(/C=C/c2ccccc2)C1C(=O)Nc1ccccc1F (stereo not drawn) [Compound 32] | 90 |

test system: ragweed (common ragweed, Ambrosia elatior); assay: Test A preemergence, ragweed; format: in vivo; conditions: 125 g ai/ha, 0 to 100 scale
In short: as §1

| SMILES | Plant response rating, Ragweed |
| --- | --- |
| O=C1NCC(/C=C/c2ccccc2)C1C(=O)Nc1ccccc1F (stereo not drawn) [Compound 32] | 0 |

same assay, conditions: 500 g ai/ha, 0 to 100 scale

| SMILES | Plant response rating, Ragweed |
| --- | --- |
| O=C1NCC(/C=C/c2ccccc2)C1C(=O)Nc1ccccc1F (stereo not drawn) [Compound 32] | 0 |

test system: ryegrass, It. (Italian ryegrass, Lolium multiflorum); assay: Test A postemergence, ryegrass, It.; format: in vivo; conditions: 125 g ai/ha, 0 to 100 scale
In short: as §1

| SMILES | Plant response rating, Ryegrass, It. |
| --- | --- |
| O=C1NCC(/C=C/c2ccccc2)C1C(=O)Nc1ccccc1F (stereo not drawn) [Compound 32] | 0 |

same assay, conditions: 500 g ai/ha, 0 to 100 scale

| SMILES | Plant response rating, Ryegrass, It. |
| --- | --- |
| O=C1NCC(/C=C/c2ccccc2)C1C(=O)Nc1ccccc1F (stereo not drawn) [Compound 32] | 0 |

test system: ducksalad (Heteranthera limosa); assay: Test B flooded paddy test, ducksalad; format: in vivo; conditions: Flood, 250 g ai/ha; scale of 0 to 100 where 0 is no effect and 100 is complete control; 13 to 15 d
In short: (§2)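 Ratings use a 0-100 visual scale, where 100 is complete control, and compare treated plants with controls after 13 to 15 d of greenhouse growth. Compound went straight into paddy water kept 3 cm over the soil surface, applied to seedlings at the 2-leaf stage.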

| SMILES | Plant response rating, Ducksalad |
| --- | --- |
| O=C1NCC(/C=C/c2ccccc2)C1C(=O)Nc1ccccc1F (stereo not drawn) [Compound 32] | 70 |

test system: kochia (Kochia scoparia); assay: Test A postemergence, kochia; format: in vivo; conditions: 125 g ai/ha, 0 to 100 scale
In short: as §1

| SMILES | Plant response rating, Kochia |
| --- | --- |
| O=C1NCC(/C=C/c2ccccc2)C1C(=O)Nc1ccccc1F (stereo not drawn) [Compound 32] | 0 |

same assay, conditions: 500 g ai/ha, 0 to 100 scale

| SMILES | Plant response rating, Kochia |
| --- | --- |
| O=C1NCC(/C=C/c2ccccc2)C1C(=O)Nc1ccccc1F (stereo not drawn) [Compound 32] | 0 |

test system: galium (catchweed bedstraw, Galium aparine); assay: Test A postemergence, galium; format: in vivo; conditions: 125 g ai/ha, 0 to 100 scale
In short: as §1

| SMILES | Plant response rating, Galium |
| --- | --- |
| O=C1NCC(/C=C/c2ccccc2)C1C(=O)Nc1ccccc1F (stereo not drawn) [Compound 32] | 0 |

same assay, conditions: 500 g ai/ha, 0 to 100 scale

| SMILES | Plant response rating, Galium |
| --- | --- |
| O=C1NCC(/C=C/c2ccccc2)C1C(=O)Nc1ccccc1F (stereo not drawn) [Compound 32] | 0 |

test system: sedge, umbrella (small-flower umbrella sedge, Cyperus difformis); assay: Test B flooded paddy test, sedge, umbrella; format: in vivo; conditions: Flood, 250 g ai/ha; scale of 0 to 100 where 0 is no effect and 100 is complete control; 13 to 15 d
In short: as §2

| SMILES | Plant response rating, Sedge, Umbrella |
| --- | --- |
| O=C1NCC(/C=C/c2ccccc2)C1C(=O)Nc1ccccc1F (stereo not drawn) [Compound 32] | 0 |

test system: barnyardgrass (Echinochloa crus-galli); assay: Test B flooded paddy test, barnyardgrass; format: in vivo; conditions: Flood, 250 g ai/ha; scale of 0 to 100 where 0 is no effect and 100 is complete control; 13 to 15 d
In short: as §2

| SMILES | Plant response rating, Barnyardgrass |
| --- | --- |
| O=C1NCC(/C=C/c2ccccc2)C1C(=O)Nc1ccccc1F (stereo not drawn) [Compound 32] | 0 |

test system: blackgrass (Alopecurus myosuroides); assay: Test A postemergence, blackgrass; format: in vivo; conditions: 125 g ai/ha, 0 to 100 scale
In short: as §1

| SMILES | Plant response rating, Blackgrass |
| --- | --- |
| O=C1NCC(/C=C/c2ccccc2)C1C(=O)Nc1ccccc1F (stereo not drawn) [Compound 32] | 0 |

same assay, conditions: 500 g ai/ha, 0 to 100 scale

| SMILES | Plant response rating, Blackgrass |
| --- | --- |
| O=C1NCC(/C=C/c2ccccc2)C1C(=O)Nc1ccccc1F (stereo not drawn) [Compound 32] | 0 |

test system: corn (Zea mays); assay: Test A postemergence, corn; format: in vivo; conditions: 125 g ai/ha, 0 to 100 scale
In short: as §1

| SMILES | Plant response rating, Corn |
| --- | --- |
| O=C1NCC(/C=C/c2ccccc2)C1C(=O)Nc1ccccc1F (stereo not drawn) [Compound 32] | 20 |

same assay, conditions: 500 g ai/ha, 0 to 100 scale

| SMILES | Plant response rating, Corn |
| --- | --- |
| O=C1NCC(/C=C/c2ccccc2)C1C(=O)Nc1ccccc1F (stereo not drawn) [Compound 32] | 20 |

test system: rice (Oryza sativa); assay: Test B flooded paddy test, rice; format: in vivo; conditions: Flood, 250 g ai/ha; scale of 0 to 100 where 0 is no effect and 100 is complete control; 13 to 15 d
In short: as §2

| SMILES | Plant response rating, Rice |
| --- | --- |
| O=C1NCC(/C=C/c2ccccc2)C1C(=O)Nc1ccccc1F (stereo not drawn) [Compound 32] | 0 |

test system: barnyardgrass (Echinochloa crus-galli); assay: Test A preemergence, barnyardgrass; format: in vivo; conditions: 125 g ai/ha, 0 to 100 scale
In short: as §1

| SMILES | Plant response rating, Barnyardgrass |
| --- | --- |
| O=C1NCC(/C=C/c2ccccc2)C1C(=O)Nc1ccccc1F (stereo not drawn) [Compound 32] | 20 |

same assay, conditions: 500 g ai/ha, 0 to 100 scale

| SMILES | Plant response rating, Barnyardgrass |
| --- | --- |
| O=C1NCC(/C=C/c2ccccc2)C1C(=O)Nc1ccccc1F (stereo not drawn) [Compound 32] | 60 |

test system: ryegrass, It. (Italian ryegrass, Lolium multiflorum); assay: Test A preemergence, ryegrass, It.; format: in vivo; conditions: 125 g ai/ha, 0 to 100 scale
In short: as §1

| SMILES | Plant response rating, Ryegrass, It. |
| --- | --- |
| O=C1NCC(/C=C/c2ccccc2)C1C(=O)Nc1ccccc1F (stereo not drawn) [Compound 32] | 0 |

same assay, conditions: 500 g ai/ha, 0 to 100 scale

| SMILES | Plant response rating, Ryegrass, It. |
| --- | --- |
| O=C1NCC(/C=C/c2ccccc2)C1C(=O)Nc1ccccc1F (stereo not drawn) [Compound 32] | 0 |
